Source: patent publication US8367094B2, “Antimicrobial material and method for making the same” (priority 2008, dated 2013)

How the values were obtained:
S. aureus = assay: in vitro agar zone of inhibition (ZOI) test; type: cell-based; conditions: 24 hours
Protocol: In an experimental procedure, using a commercially-available, medical grade polyurethane (PU) solution (available, for example from ChronoFlex AR, CardioTech International, Inc. of Woburn, Mass.), silver salt(s) is/are manually incorporated into the solution. The silver-loaded ChronoFlex solution is spread onto glass, and dried in a circulating oven at 80 C for 1.5 hours. The loaded PU film was allowed to equilibrate at RT for at least two days, and subsequently demolded. The film was manually cut into circles by means of a cork borer, and placed into serially-labeled Petri dishes. The microbiology technician was blinded regarding which silver salts were incorporated into the film. Two types of silver salts were tested as described generally above: (1) soluble salts for quick release, and (2) an insoluble salt for longevity.
If the test samples show a “zone of inhibition” (“ZOI”) the specimen thus display the capacity to kill the microorganisms tested. The ZOI is measured in mm; the greater the ZOI distance, the more powerful is the microbiocidal effect. Note that, prior to application, the test films were sterilized using short-wave UV at a distance of 2 inches for 10 seconds.
Using a 10 mm sample disc, the microbial growth inhibition was measured from the edge of each sample disc, producing antimicrobial results in accordance with the following Table:

P. aeruginosa = conditions: known in the art; cited from earlier work

## CC(O)C(=O)[O-].[Ag+] (stereo not shown) [silver lactate]
S. aureus
  microbiocidal activity against S. aureus, in words: totally ineffective

## O=C([O-])C(F)(F)F.[Ag+] [silver trifluoroacetate]
S. aureus
  microbiocidal activity against S. aureus, in words: effective against Gram-positives, but for very short periods of time

## O=C([O-])c1ccccc1.[Ag+] [silver benzoate]
S. aureus
  microbiocidal activity against S. aureus, in words: totally ineffective

## [H]/N=C(\N/C(=N/[H])NCCCCCCNC(=N)NC(=N)Nc1ccc(Cl)cc1)Nc1ccc(Cl)cc1 [chlorhexidine]
P. aeruginosa
  effectiveness against Gram-negative rods (such as pseudomonas aeruginosa): somewhat ineffective
